Legend:
sciatic nerves [1] = experiment: In vivo peripheral nerve labelling in rats, intravenous 5-ALA, fluorescence imaging of sciatic nerve; set-up: species or system Wistar rats
Procedure: (§1) Images were obtained 24 hours after 5-ALA administration. A: bright field, B: fluorescence image with false colour scale (highest intensity red/white) in rats injected with porphyrin prodrug, C: control rat without any drug injection. Images were obtained with a CCD camera following excitation at 405 nm using a light-emitting diode (LED) and red porphyrin fluorescence was recorded at 620-650 nm. Scale bar 5 mm.
(§2) 5-ALA was obtained from Sigma as an HCl salt in powder form, was stored inside a freezer. Before use, it was thawed, dissolved in a buffered aqueous solution at about pH 5, and then administered intravenously or orally.
(§3) To investigate the potential of a porphyrin prodrug for in vivo peripheral nerve labelling, Wistar rats (n>10 were injected intravenously with the porphyrin prodrug (5-aminolevulinic acid, 5-ALA), as shown in FIG. 1. At set time-points after the injection, the rats were sacrificed and the sciatic nerves and brachial plexus (near the armpit) and surrounding tissues (e.g. muscle, fat tissues) were exposed. The fluorescence image was recorded using a CCD camera.

brachial plexus = experiment: In vivo peripheral nerve labelling in rats, intravenous 5-ALA, fluorescence imaging of brachial plexus; set-up: species or system Wistar rats
Procedure: (§4) Images were obtained 24 hours after 5-ALA administration using a CCD camera following excitation at 405 nm and porphyrin fluorescence was recorded at 620-650 nm. Scale bar 5 mm.
False colour scale, red/white corresponding to high intensity. BP: brachial plexus, ALN: axillary lymph node. (A): Fluorescence image of the brachial plexus 4 hours post-injection, and (B) the corresponding bright field image (C): Fluorescence image of the brachial nerve 24 hours post-injection. (D): Brachial plexus image in control rat without 5-ALA injection.
5-ALA was obtained from Sigma as an HCl salt in powder form, was stored inside a freezer. […]
as §3
Wistar rats were administered with 5-ALA intravenously at various concentrations including 100 mg/kg and 200 mg/kg. […] 5-ALA-induced fluorescence was also detected 4 hours after administration of 5-ALA.

sciatic nerve = experiment: In vivo imaging of sciatic nerve in rat following oral administration of 5-ALA; set-up: species or system rats
Procedure: as §1, with “(A) Bright” for “A: bright”, “(B)” for “B:”, “administered” for “injected”, “5-ALA.” for “porphyrin prodrug, C: control rat without any drug injection.”, “nm.” for “nm. Scale bar 5 mm.”
as §2
A high fluorescence signal-to-background ratio (SBR) on the peripheral nerves was observed compared to adjacent tissues. […] The results were reproducible and were tested in 5 rats.

facial nerves = experiment: In vivo visualisation of facial nerves following intravenous administration of 5-ALA; set-up: species or system Wistar rats; details: including 24 hours after administration
Procedure: Images were obtained 24 hours after 5-ALA administration. (A) fluorescence image (highest intensity white colour) in rats administered with 5-ALA, (B) Bright field, in rats administered with 5-ALA, (C) Bright field, in rats administered with 5-control, and (D) fluorescence image (highest intensity white colour) in rats administered with control. Images were obtained with a CCD camera following excitation at 405 nm using a light-emitting diode (LED) and red porphyrin fluorescence was recorded at 620-650 nm.
as §2
Wistar rats were administered with 5-ALA intravenously at different concentrations including 0 mg/kg (control), 100 mg/kg and 200 mg/kg. In vivo visualisation of facial nerves which are part of the cranial nerves were performed at various times including 24 hours after administration of 5-ALA. […] No fluorescence was detected in control rats (FIG. 8D).

sciatic nerves [2] = experiment: In vivo visualisation of sciatic nerves at various times following intravenous administration of 5-ALA; set-up: species or system Wistar rats
Procedure: as §4, §2
Wistar rats were administered with 5-ALA intravenously at various concentrations including 100 mg/kg and 200 mg/kg. In vivo visualisation of peripheral nerves such as sciatic nerves and brachial plexus were obtained at various post injection times ranging from 1 hours up to few weeks after administration of 5-ALA. […] 5-ALA-induced fluorescence was also detected 4 hours after administration of 5-ALA.

[3] = sciatic nerve, intravenous injection, excitation 405 nm, fluorescence 620-650 nm, without optimisation of dose or time

SMILES: NCC(=O)CCC(=O)O [5-ALA, 5-aminolevulinic acid]
- red porphyrin fluorescence in rat nerves (sciatic nerves [1]; intravenous injection): highly selective and localised
- diameter of small nerve branches that can be resolved (sciatic nerves [1]; intravenous injection, fluorescence imaging): ~0.1 mm
- nerve to fat tissue ratio (fluorescence signal-to-background ratio) (sciatic nerves [1]; [3]): > 10
- nerve to muscle intensity ratio (fluorescence signal-to-background ratio) (sciatic nerves [1]; [3]): > 15
- time at which porphyrin levels reach a peak in surrounding tissue (sciatic nerves [1]; surrounding tissue (muscle, fat), then rapid decline to basal levels): ~4 h
- time course of nerve fluorescence in other peripheral nerves (brachial plexus; brachial plexus, compared with sciatic nerve time course): same results
- brachial plexus labelling (brachial plexus; intravenous injection): brachial plexus labelling
- red porphyrin fluorescence in rat nerves (sciatic nerve; 24 hours after administration): highly selective and localised
- fluorescence signal ratio versus adjacent tissues (sciatic nerve; tested in 5 rats): comparable to the intravenous injection route
- 5-ALA induced fluorescence (PpIX) in branches of facial nerves (facial nerves): bright and localised
- fluorescence intensity in nerve (sciatic nerves [2]; 2 weeks after administration): returned close to background levels
- fluorescence intensity in nerve (sciatic nerves [2]; 4 weeks after administration): returned close to background levels
- 5-ALA-induced fluorescence (PpIX) in sciatic nerve (sciatic nerves [2]; 4 hours after intravenous administration): detected
- 5-ALA-induced fluorescence (PpIX) in sciatic nerve (sciatic nerves [2]; 24 hours after intravenous administration): bright and localised
- visualisation of sciatic nerves (sciatic nerves [2]; 3 days after systemic administration): clearly visualised
- visualisation of sciatic nerves (sciatic nerves [2]; 5 days after systemic administration): clearly visualised
- shortest time after contacting or administration at which peripheral nerves can be visualised (sciatic nerves [2]; peripheral nerves): ≥ 1 h
- time that peripheral nerves retain high levels of fluorescence compared to background after administration (sciatic nerves [2]; peripheral nerves): up to 7 days
- time after administration at which the highest SBR may be achieved (sciatic nerves [2]; peripheral nerves, PpIX cleared from adjacent tissues): about 24 hours

— patent US20240299588A1, “NERVE LABEL” (UCL Business Ltd, priority 2021, published 2024)
